Laboratory results as given in ChEMBL document CHEMBL4610128, “Structural and Mechanistic Basis of the Inhibitory Potency of Selected 2-Aminothiazole Compounds on Protein Kinase CK2” (J Med Chem, 2020).

How the values were obtained:
[1] = target: Casein kinase II alpha/beta (Homo sapiens, UniProt P68400); assay: ATP competitive inhibition of recombinant human CK2alpha2 (1 to 335 residues)/CK2beta2 (1 to 193 residues) expressed in Escherichia coli BL21(DE3) using RRRDDDSDDD as substrate preincubated for 10 mins followed by substrate addition and measured after 5 mins in presence of varying level of [gamma-32P]ATP by Dixon-plot analysis
[2] = target: Casein kinase II alpha'/ beta (Homo sapiens) (UniProt P67870+P19784); assay: Ratio of Ki for ATP uncompetitive inhibition to Ki for ATP competitive inhibition of recombinant human CK2alpha2 (1 to 335 residues)/CK2beta2 (1 to 193 residues) expressed in Escherichia coli BL21(DE3)

Row | Structure (SMILES) | Ki [1] [nM] | Ratio Ki [2]
1 | O=C(O)c1ccc(Nc2nc(-c3ccc(Cl)cc3)cs2)cc1O | 206 | 16.3
2 | O=C(O)c1cccc(Nc2nc(-c3ccccn3)cs2)c1 | 1470 | 36.5
